Structures can show the parent of a compound that is named as a salt. Where two headings read alike, the source gives them in different places.
Legend:
insuline ulcer = experiment: insulin ulcer inhibition, method of Borsi et al.; format: in vivo; details: po, rat, p.o., read-out: Ulcer-inhibiting effect ED50, insulin
Procedure: (§1) All experiments were carried out on rats.

Shay ulcer = experiment: Shay ulcer-inhibiting effect, method of H. Shay et al.; format: in vivo; details: po, rat
Procedure: as §1

ileum = details: rat
Procedure: (§2) The effects of the new compounds exerted on the gastric acid secretion and Shay ulcer was examined according to the method of H. Shay et al. (Gastroenterology 5, 43/1945/), while their inhibition effect exerted on immobilisation and insuline ulcer was tested according to the method of Borsi et al. (Acta Pharm. Hung. 38, 151 /1968/). […] All experiments were carried out on rats. As reference substance, methantheline (diethyl-/2-hydroxyethyl/-methylammonium bromide xanthene-9-carboxylate) was used.

immobilisation ulcer = immobilisation ulcer inhibition, method of Borsi et al.; format: in vivo; details: po, rat, p.o., read-out: Ulcer-inhibiting effect ED50, immob.
Procedure: as §1

in vivo = details: rat
Procedure: as §2

gastric acid secretion = experiment: inhibition of gastric juice secretion, method of H. Shay et al.; format: in vivo; details: po; rat
Procedure: as §1

acute toxicity = details: in vivo, rat
Procedure: as §1

[1] = ip, i.p., read-out: Acute toxicity LD50, i.p.
[2] = po, p.o., read-out: Acute toxicity LD50, p.o.

O=C(CNc1ccccc1)Nc1nc(-c2cccnc2)cs1 [Example 16, 2-(Phenylamino-acetamido)-4-(3'-pyridyl)-thiazole]
ED50 (insuline ulcer): > 40 mg/kg
ED50 (Shay ulcer): > 40 mg/kg
Anticholinergic effect, ED50, ileum (ileum): > 1 gamma
ED50 (immobilisation ulcer): > 40 mg/kg
ED50 (in vivo): > 100 mg/kg
ED50 (gastric acid secretion): > 40 mg/kg
LD50 (acute toxicity; [1]): > 1000 mg/kg
LD50 (acute toxicity; [2]): > 2000 mg/kg

CC[N+](C)(CC)CCOC(=O)C1c2ccccc2Oc2ccccc21 [Methantheline, diethyl-/2-hydroxyethyl/-methylammonium bromide xanthene-9-carboxylate, reference compound]
ED50 (insuline ulcer): 11.5 mg/kg
ED50 (Shay ulcer): 15.2 mg/kg
Anticholinergic effect, ED50, ileum (ileum): 3×10^-^5 gamma
ED50 (immobilisation ulcer): 20.7 mg/kg
ED50 (in vivo): 17 mg/kg
ED50 (gastric acid secretion): 20 mg/kg
LD50 (acute toxicity; [1]): 76 mg/kg
LD50 (acute toxicity; [2]): 320 mg/kg

O=C(CNC1CC1)Nc1nc(-c2ccncc2)cs1 [Example 33, 2-cyclopropylamino-acetamido-4-(4'-pyridyl)-thiazole dihydrochloride]
Anticholinergic effect, ED50, ileum (ileum): > 1 gamma
ED50 (in vivo): > 100 mg/kg
ED50 (gastric acid secretion): 20 mg/kg
LD50 (acute toxicity; [1]): 600 mg/kg
LD50 (acute toxicity; [2]): 900 mg/kg

Cc1sc(NC(=O)CNC2CC2)nc1-c1cccnc1 [Example 31, 2-cyclopropylamino-acetamido-4-(3'-pyridyl)-5-methyl-thiazole dihydrochloride]
ED50 (insuline ulcer): 20 mg/kg
ED50 (Shay ulcer): 50 mg/kg
Anticholinergic effect, ED50, ileum (ileum): > 1 gamma
ED50 (immobilisation ulcer): 30 mg/kg
ED50 (in vivo): > 100 mg/kg
ED50 (gastric acid secretion): 19 mg/kg
LD50 (acute toxicity; [1]): 500 mg/kg
LD50 (acute toxicity; [2]): 1000 mg/kg

O=C(CN1CCCCCCC1)Nc1nc(-c2cccnc2)cs1 [Example 19, 2-(Heptamethyleneimino-acetamido)-4-(3'-pyridyl)-thiazole]
ED50 (Shay ulcer): > 40 mg/kg
Anticholinergic effect, ED50, ileum (ileum): > 1 gamma
ED50 (in vivo): > 100 mg/kg
ED50 (gastric acid secretion): > 40 mg/kg
LD50 (acute toxicity; [1]): > 1000 mg/kg
LD50 (acute toxicity; [2]): > 2000 mg/kg

O=C(CNCc1ccccc1)Nc1nc(-c2cccnc2)cs1 [Example 8, 2-(Benzylamino-acetamido)-4-(3'-pyridyl)-thiazole]
ED50 (Shay ulcer): > 40 mg/kg
Anticholinergic effect, ED50, ileum (ileum): > 1 gamma
ED50 (in vivo): > 100 mg/kg
ED50 (gastric acid secretion): 20 mg/kg
LD50 (acute toxicity; [1]): > 1000 mg/kg
LD50 (acute toxicity; [2]): 1000 mg/kg

Cc1sc(NC(=O)CNCCO)nc1-c1cccnc1 [Example 32, 2-(2'-hydroxyethylamino-acetamido)-4-(3"-pyridyl)-5-methyl-thiazole]
ED50 (insuline ulcer): > 40 mg/kg
ED50 (Shay ulcer): > 40 mg/kg
Anticholinergic effect, ED50, ileum (ileum): > 1 gamma
ED50 (immobilisation ulcer): > 40 mg/kg
ED50 (in vivo): > 100 mg/kg
ED50 (gastric acid secretion): 35 mg/kg
LD50 (acute toxicity; [1]): 400 mg/kg
LD50 (acute toxicity; [2]): > 1500 mg/kg

CCCCCCCCNCC(=O)Nc1nc(-c2cccnc2)cs1 [Example 28, 2-(n-Octylamino-acetamido)-4-(3'-pyridyl)-thiazole dihydrochloride]
ED50 (Shay ulcer): > 40 mg/kg
Anticholinergic effect, ED50, ileum (ileum): > 1 gamma
ED50 (in vivo): > 100 mg/kg
ED50 (gastric acid secretion): 40 mg/kg
LD50 (acute toxicity; [1]): 200 mg/kg
LD50 (acute toxicity; [2]): 800 mg/kg

CC(C)CNCC(=O)Nc1nc(-c2cccnc2)cs1 [Example 24, 2-(Isobutylamino-acetamido)-4-(3'-pyridyl)-thiazole dihydrochloride]
ED50 (insuline ulcer): 20 mg/kg
ED50 (Shay ulcer): > 40 mg/kg
Anticholinergic effect, ED50, ileum (ileum): > 1 gamma
ED50 (immobilisation ulcer): > 40 mg/kg
ED50 (in vivo): > 100 mg/kg
ED50 (gastric acid secretion): 23 mg/kg
LD50 (acute toxicity; [1]): 200 mg/kg
LD50 (acute toxicity; [2]): 350 mg/kg

O=C(CN1CCCCC1)Nc1nc(-c2cccnc2)cs1 [Example 17, 2-(Pentamethyleneimino-acetamido)-4-(3'-pyridyl)-thiazole]
ED50 (insuline ulcer): > 40 mg/kg
ED50 (Shay ulcer): > 40 mg/kg
Anticholinergic effect, ED50, ileum (ileum): > 1 gamma
ED50 (immobilisation ulcer): > 40 mg/kg
ED50 (in vivo): > 100 mg/kg
ED50 (gastric acid secretion): > 40 mg/kg
LD50 (acute toxicity; [1]): 650 mg/kg
LD50 (acute toxicity; [2]): 1300 mg/kg

CCCCCCNCC(=O)Nc1nc(-c2cccnc2)cs1 [Example 27, 2-(n-Hexylamino-acetamido)-4-(3'-pyridyl)-thiazole dihydrochloride]
ED50 (insuline ulcer): 20 mg/kg
ED50 (Shay ulcer): 50 mg/kg
Anticholinergic effect, ED50, ileum (ileum): > 1 gamma
ED50 (immobilisation ulcer): 25 mg/kg
ED50 (in vivo): > 100 mg/kg
ED50 (gastric acid secretion): 30 mg/kg
LD50 (acute toxicity; [1]): 300 mg/kg
LD50 (acute toxicity; [2]): 450 mg/kg

O=C(CNC1CC1)Nc1nc(-c2cccnc2)cs1 [Example 2, 2-cyclopropylamino-acetamido-4-(3'-pyridyl)-thiazole]
ED50 (insuline ulcer): 6 mg/kg
ED50 (Shay ulcer): 40 mg/kg
Anticholinergic effect, ED50, ileum (ileum): > 1 gamma
ED50 (immobilisation ulcer): 27 mg/kg
ED50 (in vivo): > 100 mg/kg
ED50 (gastric acid secretion): 8 mg/kg
LD50 (acute toxicity; [1]): 310 mg/kg
LD50 (acute toxicity; [2]): 420 mg/kg

CCN(CC)CC(=O)Nc1nc(-c2cccnc2)cs1 [Example 5, 2-(Diethylamino-acetamido)-4-(3'-pyridyl)-thiazole]
ED50 (insuline ulcer): > 40 mg/kg
ED50 (Shay ulcer): > 40 mg/kg
Anticholinergic effect, ED50, ileum (ileum): > 1 gamma
ED50 (immobilisation ulcer): 40 mg/kg
ED50 (in vivo): > 100 mg/kg
ED50 (gastric acid secretion): 40 mg/kg
LD50 (acute toxicity; [1]): 460 mg/kg
LD50 (acute toxicity; [2]): 1400 mg/kg

CCNCC(=O)Nc1nc(-c2cccnc2)cs1 [Example 4, 2-(Ethylamino-acetamido)-4-(3'-pyridyl)-thiazole]
ED50 (insuline ulcer): 12 mg/kg
ED50 (Shay ulcer): > 40 mg/kg
Anticholinergic effect, ED50, ileum (ileum): > 1 gamma
ED50 (immobilisation ulcer): 40 mg/kg
ED50 (in vivo): > 100 mg/kg
ED50 (gastric acid secretion): 16 mg/kg
LD50 (acute toxicity; [1]): 240 mg/kg
LD50 (acute toxicity; [2]): 550 mg/kg

O=C(CN1CCOCC1)Nc1nc(-c2cccnc2)cs1 [Example 18, 2-(4'-Morpholino-acetamido)-4-(3"-pyridyl)-thiazole]
ED50 (Shay ulcer): > 40 mg/kg
Anticholinergic effect, ED50, ileum (ileum): > 1 gamma
ED50 (in vivo): > 100 mg/kg
ED50 (gastric acid secretion): > 40 mg/kg
LD50 (acute toxicity; [1]): > 1000 mg/kg
LD50 (acute toxicity; [2]): 1300 mg/kg

Source: patent publication US3963735A, “Acylated 2-aminothiazole derivatives” (Egyt Gyogyszervegyeszeti Gyar, priority 1973, dated 1976)
